Columns and labels:
[1] = target: T1, human FXR ligand-binding domain (Homo sapiens, UniProt Q96RI1); test: FXR-SRC-1 Cofactor Recruitment Assay (Alpha Screen); format: biochemical; conditions: FXR-SRC-1 interaction
T1 construct: purchased Invitrogen Corporation
T1 sequence (Q96RI1 242-472 isoform Q96RI1-2 limits assumed): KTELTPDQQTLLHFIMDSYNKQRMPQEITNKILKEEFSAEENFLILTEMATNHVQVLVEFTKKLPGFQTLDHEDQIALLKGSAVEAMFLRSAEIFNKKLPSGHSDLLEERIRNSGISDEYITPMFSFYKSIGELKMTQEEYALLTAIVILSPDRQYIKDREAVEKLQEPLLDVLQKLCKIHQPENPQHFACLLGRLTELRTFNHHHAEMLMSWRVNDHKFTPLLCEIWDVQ
T1 sequence (Q15788 600-774 partner limits assumed): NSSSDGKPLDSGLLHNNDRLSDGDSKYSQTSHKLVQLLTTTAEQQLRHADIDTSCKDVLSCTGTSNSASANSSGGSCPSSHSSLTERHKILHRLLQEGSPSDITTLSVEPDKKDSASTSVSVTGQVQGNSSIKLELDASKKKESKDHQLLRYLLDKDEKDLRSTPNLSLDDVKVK
Procedure: FXR-SRC-1 Cofactor Recruitment Assay
Compounds are evaluated by an FXR-SRC-1 Cofactor Recruitment assay using the Alpha (Amplified Luminescent Proximity Homogeneous Assay) Screen technology according to the manufacturer instructions (Perkin Elmer Corporation, Norwalk, Conn., USA) at various concentrations. Mix purified 6-HIS-tagged human FXR ligand-binding domain (amino acids 242-472), purified GST-tagged human SRC-1 nuclear receptor-interacting domain (amino acids 220-394), Nickel Chelate donor beads (Perkin Elmer Corporation) and Anti-GST antibody acceptor beads (Perkin Elmer Corporation) together and aliquot 12 μL per well into 384 well plates. Add compounds in 3 μL per well for a total assay volume of 15 μL and incubate at room temperature in the dark for 4 hours. After incubation, compounds that bind FXR and induce the interaction between the FXR and SRC-1 (available from Invitrogen Corporation Carlsbad, Calif., USA) would bring the two bead types into proximity generating luminescence that is quantified. Calculate EC50 values. Exemplified compounds of the invention are found to be effective in the SRC-1 FXR interaction assay with EC50s of about 38-5200 nM.

Human FXR = target: T2, Human FXR (Homo sapiens, UniProt Q96RI1); test: Human FXR/FXR-Response Element Luciferase Reporter Cotransfection Assay; format: cell-based
T2 construct: expressed in transfected cells
T2 sequence (Q96RI1 1-486): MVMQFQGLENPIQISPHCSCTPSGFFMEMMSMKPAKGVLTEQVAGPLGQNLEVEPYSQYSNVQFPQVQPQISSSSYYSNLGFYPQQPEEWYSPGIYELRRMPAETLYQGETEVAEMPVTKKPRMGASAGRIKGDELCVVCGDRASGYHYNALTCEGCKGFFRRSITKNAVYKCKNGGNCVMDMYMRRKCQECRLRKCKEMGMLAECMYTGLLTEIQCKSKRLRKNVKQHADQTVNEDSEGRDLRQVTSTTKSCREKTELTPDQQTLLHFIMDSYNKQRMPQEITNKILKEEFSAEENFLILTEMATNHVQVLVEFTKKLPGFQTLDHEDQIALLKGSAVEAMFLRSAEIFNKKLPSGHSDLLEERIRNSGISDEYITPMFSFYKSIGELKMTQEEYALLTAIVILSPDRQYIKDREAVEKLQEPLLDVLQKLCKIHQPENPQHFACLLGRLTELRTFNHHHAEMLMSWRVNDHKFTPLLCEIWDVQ
Procedure: Human FXR/FXR-Response Element Luciferase Reporter Cotransfection Assay
Compounds of the present invention are tested using the Human FXR/FXR-Response Element Luciferase Reporter Cotransfection Assay. The assay is performed essentially as described in J. Biological Chem. 2006, 281 (52), 39831-39838, except that 10 μg total DNA per million cells is used. One of skill in the art is able to perform this assay without undue experimentation.

LDLR−/− mice = test: LDLR−/− Serum Lipid Modulation; format: in vivo; conditions: male LDLR−/− mice on western diet, 10 mg/kg once daily oral gavage, seven days
Procedure: LDLR−/− Serum Lipid Modulation
Acclimate animals for two weeks prior to study initiation. Maintain mice on a 12:12 hour light-dark cycle at 21° C. Provide deionized water ad libitum and maintain for two weeks on ‘western diet’ TD 88137 Diet (42% fat, 0.15% cholesterol, Harlan Teklad, Madison, Wis., USA) ad libitum. Optimize groups of five ten-week-old male LDLR−/− mice based on serum triglyceride and cholesterol levels. […] Separate lipoprotein fractions by FPLC, and quantify cholesterol with an in-line detection system. […] The colored product produced in the presence of cholesterol is monitored in the flow stream at 505 nm, and the analog voltage from the monitor is converted to a digital signal for collection and analysis. The change in voltage corresponding to change in cholesterol concentration is plotted vs. time, and the area under the curve corresponding to the elution of VLDL-C and HDL-C is calculated using Turbo Chrome® version 4.12F12 software (PerkinElmer Corporation). […]

EC50 [1] [nM]	EC50 (Human FXR) [nM]	SMILES	lowers total cholesterol (LDLR−/− mice)	lowers triglycerides (LDLR−/− mice)
~325	220	O=C(O)c1ccc(N2CCC(OCc3c(-c4c(Cl)cccc4Cl)noc3C3CC3)CC2)cc1 [Example 7, 4-{4-[5-Cyclopropyl-3-(2,6-dichloro-phenyl)-isoxazol-4-ylmethoxy]-piperidin-1-yl}-benzoic acid]	–	–
–	–	Cc1cc(N2CCC(OCc3c(-c4c(Cl)cccc4Cl)noc3C3CC3)CC2)ccc1C(=O)O [Example 9, 4-{4-[5-Cyclopropyl-3-(2,6-dichloro-phenyl)-isoxazol-4-ylmethoxy]-piperidin-1-yl}-2-methyl-benzoic acid]	about 76%	about 75%
